In PubChem BioAssay (NCI):
Where “and” joins values, the source holds several entries; their conditions need not be identical. Identical values can stand only once.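 Dose response: 5 concentrations. Exposure: 48 h. Format: 96-well plates. Endpoint: linear interpolation; highest concentration if not reached. At the GI50, growth is halved. The concentration for full growth arrest is given as TGI.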

Key:
Assay in all cases: DTP human tumour cell line panel, 48 h
A498 renal = tested on: A498 renal
HL-60(TB) leukemia = tested on: HL-60(TB) leukemia
K-562 leukemia = tested on: K-562 leukemia
NCI-H522 lung = tested on: NCI-H522 lung
OVCAR-3 ovarian = tested on: OVCAR-3 ovarian
OVCAR-4 ovarian = tested on: OVCAR-4 ovarian
SF-295 CNS = tested on: SF-295 CNS
TK-10 renal = tested on: TK-10 renal
M14 melanoma = tested on: M14 melanoma
NCI-H226 lung = tested on: NCI-H226 lung

Structure (SMILES) | TGI (A498 renal) | TGI (HL-60(TB) leukemia) | TGI (K-562 leukemia) [µM] | TGI (NCI-H522 lung) [µM] | TGI (OVCAR-3 ovarian) | TGI (OVCAR-4 ovarian) | TGI (SF-295 CNS) | TGI (TK-10 renal) | GI50 (A498 renal) [µM] | GI50 (HL-60(TB) leukemia) | GI50 (K-562 leukemia) [µM] | GI50 (M14 melanoma) [µM] | TGI (M14 melanoma) [µM] | GI50 (NCI-H226 lung) [µM] | TGI (NCI-H226 lung) | GI50 (OVCAR-3 ovarian) [µM] | GI50 (OVCAR-4 ovarian) [µM] | GI50 (TK-10 renal) [µM] | GI50 (NCI-H522 lung) [µM] | GI50 (SF-295 CNS) [µM]
CCCCCCCCCCCCCCN | > 100 µM | > 100 µM | > 100 | > 100 | > 100 µM | > 100 µM | > 100 µM | > 100 µM | – | – | – | – | – | – | – | – | – | – | – | –
CCN(CC)CCNc1ccc([N+](=O)[O-])c2sc3ccccc3c(=O)c12 | 2.16 µM | 3.27 µM | 3.39 | – | 2.69 µM | 2.81 µM | – | 2.24 µM | 0.591 | 0.783 µM | 0.582 | 1.36 | 2.85 | 2.06 | 6.6 µM | 1.32 | 1.35 | 0.624 | – | –
CCCc1c(CC)c(=N)c2ccccc2n1C | > 100 µM | > 100 µM | > 100 | > 100 | > 100 µM | > 100 µM | > 100 µM | > 100 µM | 22.8 | > 100 µM | 51.1 | – | – | 93.6 | > 100 µM | 59.9 | 20.1 | > 100 | 65.6 | 57
CC1CC#CCOC(=O)CCCC1=O (configuration not stated) | – | > 100 µM | > 100 | > 100 | > 100 µM | > 100 µM | > 100 µM | > 100 µM | – | – | – | – | > 100 | – | > 100 µM | – | – | – | – | –
COC[C@@H](N=CN1CCc2cc(OC)c(OC)cc2[C@@H]1C)C(C)(C)C | – | > 100 µM | > 100 | > 100 | > 100 µM | > 100 µM | > 100 µM | > 100 µM | – | – | – | – | > 100 | – | > 100 µM | – | – | – | – | –
CC[C@@]1(O)C[C@H](OC2CC(N(C)C)C(OC3CC(O)C(OC4CCC(=O)C(C)O4)C(C)O3)C(C)O2)c2c(cc3c(c2O)C(=O)c2c(O)cccc2C3=O)[C@H]1C(=O)OC (some centres not stated) | 0.0539 µM and 0.0599 µM | 0.0613 µM and 0.177 µM | – | – | 0.6 µM and 0.169 µM | 0.221 µM and 0.196 µM | 0.224 µM and 0.92 µM | 0.932 µM and 0.373 µM | – | 0.00866 µM and 0.0039 µM | – | – | 0.149 | – | 0.0948 µM and 0.13 µM | – | – | – | – | –
O=C(/C=C/c1ccccc1)CC1OC(=O)c2ccccc21 (configuration not stated) | > 100 µM | > 100 µM | > 100 | > 100 | – | > 100 µM | > 100 µM | > 100 µM | – | – | – | – | > 100 | – | 83.1 µM | – | – | – | – | –
C=CC1[C@H]2COC(C)(C)O[C@@H]2CC(=O)C1(C)C (some centres not stated) | – | > 100 µM | – | > 100 | – | > 100 µM | > 100 µM | > 100 µM | – | – | – | – | > 100 | – | > 100 µM | – | – | – | – | –
O=C([CH-]C(=O)c1ccccc1)c1ccccc1.O=C([CH-]C(=O)c1ccccc1)c1ccccc1.O=C([CH-]C(=O)c1ccccc1)c1ccccc1.[Nd+3].[OH3+] | 27.3 µM | 4.99 µM | 16.7 | 7.28 | 14.8 µM | 51.7 µM | 13.5 µM | 74.7 µM | 9 | 1.5 µM | 2.8 | 6.89 | 21.2 | – | – | 3.01 | 6.63 | 8.51 | 2.06 | 2.07
O=C(c1ccc(Cl)cc1)c1ccc(OCCCCCCCCCCOc2ccc(C(=O)c3ccc(Cl)cc3)cc2)cc1 | > 100 µM | > 100 µM | > 100 | > 100 | > 100 µM | – | > 100 µM | > 100 µM | – | – | – | – | – | – | > 100 µM | – | – | – | – | –
CC(C)=CCC/C(C)=C/CC/C(C)=C/Cc1c(O)c2ccccc2oc1=O | – | > 100 µM | > 100 | > 100 | > 100 µM | > 100 µM | > 100 µM | > 100 µM | – | – | – | – | > 100 | – | > 100 µM | – | – | – | – | –
CS(=O)(=O)OCCN1CCN(C(=O)c2cccc3c(Nc4ccc(S(=O)(=O)N=C(N)N)cc4)c4ccccc4nc23)CC1 | > 100 µM | > 100 µM | > 100 | – | > 100 µM | > 100 µM | > 100 µM | > 100 µM | – | – | – | – | > 100 | – | > 100 µM | – | – | – | – | –
O=C(c1ccccc1)C1CCCCN1C(=O)c1ccccc1 (configuration not stated) | > 100 µM | > 100 µM | > 100 | > 100 | > 100 µM | > 100 µM | – | > 100 µM | – | – | – | – | > 100 | – | > 100 µM | – | – | – | – | –
OC1c2ccccc2C2(O)C1C(c1ccccc1)C(c1ccccc1)C2(O)c1ccccc1 (configuration not stated) | – | 31.9 µM | 50 | 31.7 | 26.9 µM | > 100 µM | 25.5 µM | 85.4 µM | – | – | – | – | 28.3 | – | – | – | – | – | – | –
COc1ccc(-c2nc3sc(-c4ccc(Cl)cc4)cn3n2)cc1 | – | > 50 µM | > 50 | > 50 | 7.2 µM | 1.63 µM | 31.8 µM | 5.62 µM | – | > 50 µM | 29.4 | > 50 | > 50 | 11.1 | > 50 µM | 1.72 | 0.766 | 2.01 | 14.9 | 2.81
CC1(C)C(=O)C(C)(C)C1=NN | – | > 100 µM | > 100 | > 100 | > 100 µM | > 100 µM | > 100 µM | > 100 µM | – | – | – | – | > 100 | – | > 100 µM | – | – | – | – | –
O=Cc1ccccc1OCCOc1cc(OCCOc2ccccc2C=O)c(OCCOc2ccccc2C=O)cc1OCCOc1ccccc1C=O | > 100 µM | > 100 µM | > 100 | > 100 | > 100 µM | > 100 µM | – | 96.8 µM | – | – | – | – | > 100 | – | > 100 µM | – | – | – | – | –
CSC(CC(=O)O)C(=O)O (configuration not stated) | > 100 µM | > 100 µM | – | > 100 | > 100 µM | > 100 µM | > 100 µM | > 100 µM | – | – | – | – | > 100 | – | > 100 µM | – | – | – | – | –
C/C(=N\O)c1cccc(Nc2cc(-n3ccnn3)c3ccccc3n2)c1 | 38.3 µM | – | 36.5 | 28.9 | 55.8 µM | 27.8 µM | 47.8 µM | 46.3 µM | 15.2 | – | 14.9 | – | – | 0.388 | 9.35 µM | 20.2 | 0.25 | 16.9 | 13.2 | 18.5
